Where only a bound is given, the exact number is not on record here.

Consider 33 molecules from patent US10752640B2, “Compounds active towards bromodomains” (NUEVOLUTION A/S, priority 2014, dated 2020).

The target of the assay is BRD4 protein (Homo sapiens, UniProt O60885). As to the kind of experiment: FRET assay, half maximal inhibitory concentration (IC50). It is filed as binding. To be noted: BRD4 protein 50 nM, Biotin-H4KAc4 peptide 12.5 nM; List of Classification. On the procedure:
The compounds were biologically evaluated by determining the half maximal inhibitory concentration (IC50) by FRET assay. The IC50 is a measure of the effectiveness of a substance in inhibiting a specific biological or biochemical function.
For IC50 determinations, dose-response curves were generated, using a top concentration of 50 μM compound in 12.5% DMSO, followed by 10-fold dilutions in 12.5% DMSO. The composition of the reaction buffer was 50 mM HEPES, pH 7.5; 100 mM NaCl, 0.05% CHAPS.
The reaction was run in a final volume of 25 μl. The BRD4 protein (16.5 μl) was added to wells of 384w white Optiplates (Perkin Elmer) (50 nM final concentration) and 1 μl of compound dilution of DMSO control. Incubation time was 30 minutes at room temperature. In the next step, 2.5 μl Biotin-H4KAc4 peptide (Millipore 13-379) was added to the wells (final concentration was 12.5 nM), and the plates were incubated for 30 minutes at room temperature. Detection was performed by addition of 5 μl of a mix of mAb GST-XL665 (Cisbio 61GSTXLB) (10 nM final concentration) and Streptavidin Cryptate (Cisbio 610SAKLB) (2.4 nM final conc.) in reaction buffer with 0.4M KF and 0.05% BSA). The plates were incubated for one hour prior to reading on an Envision reader (Perkin Elmer)
Data was analyzed using GraphPad Prism, and IC50 data was obtained using non-linear regression curve fit using log(inhibitor) vs response (variable slope). All compounds were considered active although classified (according to the half maximal inhibitory concentration (IC50) by FRET assay) as follows: […]
Broadly, the IC50 is the concentration at which inhibition is half-maximal. High values mean a need for much substance, low ones inhibition by little substance. With `Cc1cc(O)nc2ccc(NC(=O)c3cc(S(=O)(=O)N(C)C)ccc3N3CCC(N(C)C)C3)cc12` (stereo not drawn) [Compound-16, 2-[3-(dimethylamino)pyrrolidin-1-yl]-5-(dimethylsulfamoyl)-N-(2-hydroxy-4-methyl-6-quinolyl)benzamide], the half-inhibitory concentration (IC50) fell in the range of 200 to 500 nM.

In turn, `Cc1cc(O)nc2ccc(NC(=O)c3cc(S(=O)(=O)N(C)C)ccc3N3CCC(O)C3)cc12` (stereo not drawn) [Compound-17, 5-(dimethylsulfamoyl)-N-(2-hydroxy-4-methyl-6-quinolyl)-2-(3-hydroxypyrrolidin-1-yl)benzamide] returned a 50% inhibitory concentration (IC50) of less than 200 nM.

Take `Cc1cc(O)nc2ccc(NC(=O)c3cc(S(=O)(=O)N(C)C)ccc3NCCN(C)C)cc12` [Compound-18, 2-(2-dimethylaminoethylamino)-5-(dimethylsulfamoyl)-N-(2-hydroxy-4-methyl-6-quinolyl)benzamide]: the IC50 was greater than 10000 nM.

`Cc1cc(O)nc2ccc(NC(=O)c3cc(S(=O)(=O)N(C)C)ccc3NCCO)cc12` [Compound-19, 5-(dimethylsulfamoyl)-2-(2-hydroxyethylamino)-N-(2-hydroxy-4-methyl-6-quinolyl)benzamide] had an IC50 greater than 10000 nM.

Take `Cc1cc(O)nc2ccc(NC(=O)c3cc(S(=O)(=O)N(C)C)ccc3N3CC(N(C)C)C3)cc12` [Compound-20, 2-[3-(dimethylamino)azetidin-1-yl]-5-(dimethylsulfamoyl)-N-(2-hydroxy-4-methyl-6-quinolyl)benzamide]: the IC50 lay in the range of 200 to 500 nM.

With `Cc1cc(O)nc2ccc(N(C)C(=O)c3cc(S(=O)(=O)N(C)C)ccc3N3CCN(C)CC3)cc12` [Compound-21, 5-(N, N-dimethylsulfamoyl)-N-(2-hydroxy-4-methylquinolin-6-yl)-N-methyl-2-(4-methylpiperazin-1-yl) benzamide], the IC50 is greater than 10000 nM.

As to `Cc1cc(O)nc2ccc(N(C)C(=O)c3cc(S(=O)(=O)N4CCOCC4)ccc3N3CCCC3)cc12` [Compound-22, N-(2-hydroxy-4-methylquinolin-6-yl)-N-methyl-5-(morpholinosulfonyl)-2-(pyrrolidin-1-yl) benzamide], the concentration for half-maximal inhibition (IC50) is greater than 10000 nM.

Consider `Cc1cc(O)nc2ccc(NC(=O)c3cc([N+](=O)[O-])cnc3N3CCCC3)cc12` [Compound-23, N-(2-hydroxy-4-methyl-6-quinolyl)-5-nitro-2-pyrrolidin-1-yl-pyridine-3-carboxamide], for which the IC50 lay within 1000 to 10000 nM.

The molecule `Cc1cc(O)nc2ccc(NC(=O)c3cc(N)cnc3N3CCCC3)cc12` [Compound-24, 5-amino-N-(2-hydroxy-4-methyl-6-quinolyl)-2-pyrrolidin-1-yl-pyridine-3-carboxamide] registered an IC50 of less than 200 nM.

For `Cc1cc(O)nc2ccc(NC(=O)c3cc(NCC(N)=O)cnc3N3CCCC3)cc12` [Compound-25, 5-[(2-amino-2-oxo-ethyl)amino]-N-(2-hydroxy-4-methyl-6-quinolyl)-2-pyrrolidin-1-yl-pyridine-3-carboxamide], the IC50 lay in the range of 200 to 500 nM.

For `COCC1CCCN1c1ccc(CN2CCOCC2)cc1C(=O)Nc1ccc2nc(O)cc(C)c2c1` (stereo not drawn) [Compound-26, N-(2-hydroxy-4-methylquinolin-6-yl)-2-(2-(methoxymethyl)pyrrolidin-1-yl)-5-(morpholinomethyl) benzamide], the IC50 was less than 200 nM.

`Cc1cc(O)nc2ccc(NC(=O)c3cc(CN4CCOCC4)ccc3N3CCCC3c3cc[nH]n3)cc12` (stereo not drawn) [Compound-27, 2-(2-(1H-pyrazol-3-yl)pyrrolidin-1-yl)-N-(2-hydroxy-4-methylquinolin-6-yl)-5-(morpholinomethyl) benzamide] had an IC50 of 1000 to 10000 nM.

Take `O=C(Nc1ccc2nc(O)cc(C(F)(F)F)c2c1)c1cc(CN2CCOCC2)ccc1N1CCCC1` [Compound-28, N-(2-hydroxy-4-(trifluoromethyl)quinolin-6-yl)-5-(morpholinomethyl)-2-(pyrrolidin-1-yl) benzamide]: the half-maximal inhibitory concentration (IC50) was in the range of 500 to 1000 nM.

Regarding `Cc1cc2nc(O)cc(C)c2cc1NC(=O)c1cc(CN2CCOCC2)ccc1N1CCCC1` [Compound-29, N-(2-hydroxy-4,7-dimethylquinolin-6-yl)-5-(morpholinomethyl)-2-(pyrrolidin-1-yl)benzamide], the IC50 was less than 200 nM.

As for `Cc1cc(O)nc2ccc(NC(=O)c3cc(CN4CCOCC4)ccc3N3CCCC3CO)cc12` (stereo not drawn) [Compound-30, N-(2-hydroxy-4-methylquinolin-6-yl)-2-(2-(hydroxymethyl)pyrrolidin-1-yl)-5-(morpholinomethyl) benzamide], the IC50 was less than 200 nM.

`Cc1cc(O)nc2ccc(NC(=O)c3cc(CN4CCOCC4)ccc3N3CCC(O)C3)cc12` (stereo not drawn) [Compound-31, N-(2-hydroxy-4-methyl-6-quinolyl)-2-(3-hydroxypyrrolidin-1-yl)-5-(morpholinomethyl)benzamide] came in with a half-inhibitory concentration (IC50) of less than 200 nM.

As for `Cc1cc(O)nc2ccc(NC(=O)c3cc(CN4CCOCC4)ccc3N3CCCC3CN(C)C)cc12` (stereo not drawn) [Compound-32, 2-(2-((dimethylamino)methyl)pyrrolidin-1-yl)-N-(2-hydroxy-4-methylquinolin-6-yl)-5-(morpholinomethyl) benzamide], the half-inhibitory concentration (IC50) is less than 200 nM.

As to `Cc1cc(O)nc2ccc(NC(=O)c3nc(-c4nnn[nH]4)ccc3N3CCCC3)cc12` [Compound-33, N-(2-hydroxy-4-methylquinolin-6-yl)-3-(pyrrolidin-1-yl)-6-(1H-tetrazol-5-yl) picolinamide], the IC50 was 1000 to 10000 nM.

As to `Cc1cc(O)nc2ccc(NC(=O)c3cc(CN4CCOCC4)ccc3N3CCCC3=O)cc12` [Compound-34, N-(2-hydroxy-4-methylquinolin-6-yl)-5-(morpholinomethyl)-2-(2-oxopyrrolidin-1-yl) benzamide], the half-inhibitory concentration (IC50) was in the range of 500 to 1000 nM.

`Cc1cc(O)nc2ccc(NC(=O)c3nc(C#N)ccc3N3CCCC3)cc12` [Compound-35, 6-Cyano-N-(2-hydroxy-4-methylquinolin-6-yl)-3-(pyrrolidin-1-yl)picolinamide]: the IC50 lay within 500 to 1000 nM.

Turning to `Cc1cc(O)nc2ccc(NC(=O)c3nc(CN)ccc3N3CCCC3)cc12` [Compound-36, 6-(aminomethyl)-N-(2-hydroxy-4-methylqunolin-6-yl)-3-(pyrrolidin-1-yl)picolinamide], the concentration for half-maximal inhibition (IC50) lay within 1000 to 10000 nM.

`Cc1cc(O)nc2ccc(NC(=O)c3nc(CN(C)C)ccc3N3CCCC3)cc12` [Compound-37] returned a half-maximal inhibitory concentration (IC50) of 1000 to 10000 nM.

`CC(=O)c1ccc(N2CCCC2)c(C(=O)Nc2ccc3nc(O)cc(C)c3c2)n1` [Compound-38, 6-acetyl-N-(2-hydroxy-4-methylquinolin-6-yl)-3(pyrrolidin-1-yl)picolinamide] displayed a concentration for half-maximal inhibition (IC50) of less than 200 nM.

In the case of `Cc1cc(O)nc2ccc(NC(=O)c3nc(C(C)O)ccc3N3CCCC3)cc12` (stereo not drawn) [Compound-39], the IC50 is 500 to 1000 nM.

For the molecule `Cc1cc(O)nc2ccc(NC(=O)c3nc(C(N)=O)ccc3N3CCCC3)cc12` [Compound-40, N2-(2-hydroxy-4-methylquinolin-6-yl)-3-(pyrrolidin-1-yl)pyridine-2,6-dicarboxamide], the half-inhibitory concentration (IC50) fell in the range of 200 to 500 nM.

Consider `Cc1cc(O)nc2ccc(NC(=O)c3cc(C#N)ncc3N3CCCC3)cc12` [Compound-41, 2-Cyano-N-(2-hydroxy-4-methylquinolin-6-yl)-5-(pyrrolidin-1-yl) isonicotinamide], for which the half-inhibitory concentration (IC50) was less than 200 nM.

The molecule `CC(=O)c1cc(C(=O)Nc2ccc3nc(O)cc(C)c3c2)c(N2CCCC2)cn1` [Compound-42, 2-acetyl-N-(2-hydroxy-4-methylquinolin-6-yl)-5 (pyrrolidin-1-yl)isonicotinamide] registered an IC50 of less than 200 nM.

Regarding `Cc1cc(O)nc2ccc(NC(=O)c3cc(C(C)O)ccc3N3CCCC3)cc12` (stereo not drawn) [Compound-46, N-(2-hydroxy-4-methylquinolin-6-yl)-5-(1-hydroxyethyl)-2-(pyrrolidin-1-yl) benzamide], the IC50 is less than 200 nM.

In turn, `COC(C)c1ccc(N2CCCC2)c(C(=O)Nc2ccc3nc(O)cc(C)c3c2)c1` (stereo not drawn) [Compound-47, N-(2-hydroxy-4-methylquinolin-6-yl)-5-(1-methoxyethyl)-2-(pyrrolidin-1-yl) benzamide] yielded an IC50 of less than 200 nM.

`COCc1ccc(N2CCCC2CN(C)C)c(C(=O)Nc2ccc3nc(O)cc(C)c3c2)c1` (stereo not drawn) [Compound-48, 2-(2-((dimethylamino)methyl)pyrrolidin-1-yl)-N-(2-hydroxy-4-methylquinolin-6-yl)-5-(methoxymethyl)benzamide] gave an IC50 of 200 to 500 nM.

`Cc1cc(O)nc2ccc(NC(=O)c3cc(COC(C)C)ccc3N3CCCC3)cc12` [Compound-50, N-(2-hydroxy-4-methylquinolin-6-yl)-5-(isopropoxymethyl)-2-(pyrrolidin-1-yl) benzamide] yielded a 50% inhibitory concentration (IC50) of less than 200 nM.

In turn, `Cc1cc(O)nc2ccc(NC(=O)c3cc(OC(F)(F)F)ccc3N3CCCC3CN(C)C)cc12` (stereo not drawn) [Compound-51, 2-(2-((dimethylamino)methyl)pyrrolidin-1-yl)-N-(2-hydroxy-4-methylquinolin-6-yl)-5-(trifluoromethoxy) benzamide] gave an IC50 of less than 200 nM.

`Cc1cc(O)nc2ccc(NC(=O)c3cc(N)ccc3N3CCOCC3)cc12` [Compound-54, 5-amino-N-(2-hydroxy-4-methyl-6-quinolyl)-2-morpholino-benzamide] came in with a 50% inhibitory concentration (IC50) of 500 to 1000 nM.
